Results taken from patent publication US20230183237A1, “COMPETITIVE AND NONCOMPETITIVE INHIBITORS OF THE MUSCARINIC ACETYLCHOLINE RECEPTOR M5” (Vanderbilt University, priority 2020, published 2023).

The compounds below were run against T1, hM5 (Homo sapiens, UniProt P08912) (assay: Calcium mobilization concentration-response (IC50 vs EC80 acetylcholine), CHO hM5). Conditions: CELL LINE hM5; calcium mobilization, EC80 acetylcholine addition; read-out: IC50.
T1 construct: expressed in transfected cells
T1 sequence (P08912 1-532): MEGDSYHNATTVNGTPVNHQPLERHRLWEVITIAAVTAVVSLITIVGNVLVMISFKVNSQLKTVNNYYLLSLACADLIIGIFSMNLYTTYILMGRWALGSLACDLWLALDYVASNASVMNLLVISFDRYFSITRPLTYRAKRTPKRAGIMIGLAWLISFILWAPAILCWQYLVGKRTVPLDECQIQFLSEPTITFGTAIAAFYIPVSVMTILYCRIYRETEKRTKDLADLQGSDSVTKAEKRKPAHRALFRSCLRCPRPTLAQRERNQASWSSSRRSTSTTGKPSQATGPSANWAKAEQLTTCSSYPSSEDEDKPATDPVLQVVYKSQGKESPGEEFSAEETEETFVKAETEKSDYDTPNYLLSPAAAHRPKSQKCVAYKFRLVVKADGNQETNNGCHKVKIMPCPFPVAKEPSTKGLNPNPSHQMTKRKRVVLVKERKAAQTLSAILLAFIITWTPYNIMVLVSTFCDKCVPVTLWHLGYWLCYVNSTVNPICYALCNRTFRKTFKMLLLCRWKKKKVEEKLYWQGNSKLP
Type: cell-based
In short: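 CHO cells stably expressing hM5, dye-loaded, in HBSS/20 mM HEPES/2.5 mM probenecid, pH 7.4. Compounds were pre-incubated 140 s before an EC80 acetylcholine challenge, with calcium flux read kinetically.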

Row | SMILES | IC50 [nM]
1 | O=S(=O)(c1cnn2c1CCC2)N1CC=C(c2cn3ncnc3cc2Cl)CC1 [Compound 196, 7-chloro-6-(1-((5,6-dihydro-4H-pyrrolo[1,2-b]pyrazol-3-yl)sulfonyl)-1,2,3,6-tetrahydropyridin-4-yl)-[1,2,4]triazolo[1,5-a]pyridine] | 6.1
2 | Cc1cc2ncnn2cc1C1=CCN(S(=O)(=O)c2ccc3c(c2)CCO3)CC1 [Compound 35, 6-(1-((2,3-dihydrobenzofuran-5-yl)sulfonyl)-1,2,3,6-tetrahydropyridin-4-yl)-7-methyl-[1,2,4]triazolo[1,5-a]pyridine] | 518
3 | Cc1cc2ncnn2cc1C1CCN(S(=O)(=O)c2ccsc2)CC1 [Compound 125, 7-methyl-6-(1-(thiophen-3-ylsulfonyl)piperidin-4-yl)-[1,2,4]triazolo[1,5-a]pyridine] | > 10000
4 | O=S(=O)(c1ccc2c(c1)CCO2)N1CCC(c2ccc3c(c2)OCO3)CC1 [Compound 359, 4-(benzo[d][1,3]dioxol-5-yl)-1-((2,3-dihydrobenzofuran-5-yl)sulfonyl)piperidine] | > 10000
5 | Cc1ncc(S(=O)(=O)N2CCC(c3ccc4ncnn4c3)CC2)n1C [Compound 286, 6-(1-((1,2-dimethyl-1H-imidazol-5-yl)sulfonyl)piperidin-4-yl)-[1,2,4]triazolo[1,5-a]pyridine] | 2000
6 | CCc1cc2ncnn2cc1C1CCN(S(=O)(=O)c2cnc3ccccn23)CC1 [Compound 334, 7-ethyl-6-(1-(imidazo[1,2-a]pyridin-3-ylsulfonyl)piperidin-4-yl)-[1,2,4]triazolo[1,5-a]pyridine] | 341
7 | Cc1cc2c(cc1C1CCN(S(=O)(=O)c3cnn(C)c3C)CC1)OCO2 [Compound 371, 1-((1,5-dimethyl-1H-pyrazol-4-yl)sulfonyl)-4-(6-methylbenzo[d][1,3]dioxol-5-yl)piperidine] | 17
8 | Cc1c(C2CCN(S(=O)(=O)c3cnn(C)c3C(F)(F)F)CC2)cn2ncnc2c1F [Compound 347, 8-fluoro-7-methyl-6-(1-((1-methyl-5-(trifluoromethyl)-1H-pyrazol-4-yl)sulfonyl)piperidin-4-yl)-[1,2,4]triazolo[1,5-a]pyridine] | 360
9 | Cc1cc2ncnn2cc1C1CCN(S(=O)(=O)c2cc3c(cc2F)OCC3)C1 (stereo not drawn) [Compound 127, 6-(1-((6-fluoro-2,3-dihydrobenzofuran-5-yl)sulfonyl)pyrrolidin-3-yl)-7-methyl-[1,2,4]triazolo[1,5-a]pyridine] | > 10000
10 | O=S(=O)(c1ccc2ncsc2c1)N1CCC(c2cn3ccccc3n2)CC1 [Compound 9, 6-((4-(imidazo[1,2-a]pyridin-2-yl)piperidin-1-yl)sulfonyl)benzo[d]thiazole] | > 10000
11 | Cc1sc(C(N)=O)nc1C1=CCN(S(=O)(=O)c2ccc3c(c2)CCO3)CC1 [Compound 203, 4-(1-((2,3-dihydrobenzofuran-5-yl)sulfonyl)-1,2,3,6-tetrahydropyridin-4-yl)-5-methylthiazole-2-carboxamide] | > 10000
12 | Cc1cc2nccn2nc1C1=CCN(S(=O)(=O)c2ccc3c(c2)CCO3)CC1 [Compound 34, 6-(1-((2,3-dihydrobenzofuran-5-yl)sulfonyl)-1,2,3,6-tetrahydropyridin-4-yl)-7-methylimidazo[1,2-b]pyridazine] | > 10000
13 | Cc1cc2nccn2cc1C1CCN(S(=O)(=O)c2cn(C)nc2C)CC1 [Compound 71, 6-(1-((1,3-dimethyl-1H-pyrazol-4-yl)sulfonyl)piperidin-4-yl)-7-methylimidazo[1,2-a]pyridine] | > 10000
14 | O=S(=O)(c1ccc2c(c1)CCO2)N1CCC(c2cn3ccccc3n2)CC1 [Compound 10, 2-(1-((2,3-dihydrobenzofuran-5-yl)sulfonyl)piperidin-4-yl)imidazo[1,2-a]pyridine] | 2300

Same assay, conditions: CELL LINE hM5; vs EC80 acetylcholine; read-out: IC50

Row | SMILES | IC50 [nM]
15 | Cc1nnc(S(=O)(=O)N2CCC(c3cn4ncnc4cc3C(F)F)CC2)s1 [Compound 556, 2-((4-(7-(difluoromethyl)-[1,2,4]triazolo[1,5-a]pyridin-6-yl)piperidin-1-yl)sulfonyl)-5-methyl-1,3,4-thiadiazole] | 342
16 | Cc1ncc(S(=O)(=O)N2CCC(c3cnc(C(F)(F)F)cc3C)CC2)s1 [Compound 397, 2-methyl-5-((4-(4-methyl-6-(trifluoromethyl)pyridin-3-yl)piperidin-1-yl)sulfonyl)thiazole] | > 10000
17 | Cc1cc2ncnn2cc1C1(F)CCN(S(=O)(=O)c2cnn(C)c2C(F)(F)F)CC1 [Compound 423, 6-(4-fluoro-1-((1-methyl-5-(trifluoromethyl)-1H-pyrazol-4-yl)sulfonyl)piperidin-4-yl)-7-methyl-[1,2,4]triazolo[1,5-a]pyridine] | 912
18 | [2H]C1([2H])CC(c2cn3ncnc3cc2F)CC([2H])([2H])N1S(=O)(=O)c1cnc(C)o1 [Compound 567, 5-((4-(7-fluoro-[1,2,4]triazolo[1,5-a]pyridin-6-yl)piperidin-1-yl-2,2,6,6-d4)sulfonyl)-2-methyloxazole] | 1390
19 | Cc1cc2ncccc2cc1C1CCN(S(=O)(=O)c2c(Cl)nc3sccn23)CC1 [Compound 451, 6-chloro-5-((4-(7-methylquinolin-6-yl)piperidin-1-yl)sulfonyl)imidazo[2,1-b]thiazole] | 619
20 | Cc1cc2ncccc2cc1C1CCN(S(=O)(=O)c2cnn3c2CCC3)CC1 [Compound 444, 6-(1-((5,6-dihydro-pyrrolo[1,2-b]pyrazol-3-yl)sulfonyl)piperidin-4-yl)-7-methylquinoline] | 15
21 | COc1ncc(S(=O)(=O)N2CCC(c3cn4ncnc4cc3C)CC2)s1 [Compound 600, 2-methoxy-5-((4-(7-methyl-[1,2,4]triazolo[1,5-a]pyridin-6-yl)piperidin-1-yl)sulfonyl)thiazole] | 529
22 | [2H]C1([2H])CC(c2cn3ncnc3cc2F)CC([2H])([2H])N1S(=O)(=O)c1cc(C)ns1 [Compound 528, 5-((4-(7-fluoro-[1,2,4]triazolo[1,5-a]pyridin-6-yl)piperidin-1-yl-2,2,6,6-d4)sulfonyl)-3-methylisothiazole] | 595
23 | Cc1ncc(S(=O)(=O)N2CCC(c3nn4ncnc4cc3C)CC2)o1 [Compound 488, 2-methyl-5-((4-(7-methyl-[1,2,4]triazolo[1,5-b]pyridazin-6-yl)piperidin-1-yl)sulfonyl)oxazole] | 6350
24 | Cn1ncc(S(=O)(=O)N2CCC(c3c4c(nn3C)CCCC4)CC2)c1Cl [Compound 592, 3-(1-((5-chloro-1-methyl-1H-pyrazol-4-yl)sulfonyl)piperidin-4-yl)-2-methyl-4,5,6,7-tetrahydro-2H-indazole] | 325
25 | Cc1nnc(S(=O)(=O)N2CCC(c3cn4ncnc4cc3C)CC2)s1 [Compound 539, 2-methyl-5-((4-(7-methyl-[1,2,4]triazolo[1,5-a]pyridin-6-yl)piperidin-1-yl)sulfonyl)-1,3,4-thiadiazole] | 31
26 | [2H]C1([2H])CC(c2cn3ncnc3cc2F)CC([2H])([2H])N1S(=O)(=O)c1c(C)nn(C)c1Cl [Compound 475, 6-(1-((5-chloro-1,3-dimethyl-1H-pyrazol-4-yl)sulfonyl)piperidin-4-yl-2,2,6,6-d4)-7-fluoro-[1,2,4]triazolo[1,5-a]pyridine] | 96
27 | COCC(=O)NCc1c(S(=O)(=O)N2CCC(c3cn4ncnc4cc3F)CC2)cnn1C [Compound 553, N-((4-((4-(7-fluoro-[1,2,4]triazoto[1,5-a]pyridin-6-yl)piperidin-1-yl)sulfonyl)-1-methyl-1H-pyrazol-5-yl)methyl)-2-methoxyacetamide] | > 10000
28 | Cn1ncc(S(=O)(=O)N2CCC(F)(c3cn4ncnc4cc3F)CC2)c1C(F)F [Compound 504, 6-(1-((5-(difluoromethyl)-1-methyl-1H-pyrazol-4-yl)sulfonyl)-4-fluoropiperidin-4-yl)-7-fiuoro-[1,2,4]triazolo[1,5-a]pyridine] | 1260
29 | Cn1ncc(S(=O)(=O)N2CCC(c3cn4ncnc4cc3F)CC2)c1CC#N [Compound 403, 2-(4-((4-(7-fluoro-[1,2,4]triazolo[1,5-a]pyridin-6-yl)piperidin-1-yl)sulfonyl)-1-methyl-1H-pyrazol-5-yl)acetonitrile] | 5060
30 | Cc1cc2ncnn2cc1C1CCN(S(=O)(=O)c2scnc2C)CC1 [Compound 601, 4-methyl-5-((4-(7-methyl-[1,2,4]triazolo[1,5-a]pyridin-6-yl)piperidin-1-yl)sulfonyl)thiazole] | 5240
31 | Cc1cc2ccnn2cc1C1CCN(S(=O)(=O)c2cnn(C)c2CC#N)CC1 [Compound 454, 2-(1-methyl-4-((4-(5-methylpyrazolo[1,5-a]pyridin-6-yl)piperidin-1-yl)sulfonyl)-1H-pyrazol-5-yl)acetonitrile] | > 10000
32 | Cc1cc2ncccc2cc1C1CCN(S(=O)(=O)c2c(Cl)nn3ccccc23)CC1 [Compound 447, 6-(1-((2-chloropyrazolo[1,5-a]pyridin-3-yl)sulfonyl)piperidin-4-yl)-7-methylquinoline] | 1360
33 | CCc1cc2ncnn2cc1C1CCN(S(=O)(=O)c2cc(C)ns2)CC1 [Compound 493, 5-((4-(7-ethyl-[1,2,4]triazolo[1,5-a]pyridin-6-yl)piperidin-1-yl)sulfonyl)-3-methylisothiazole] | 65
